Here are results for 22 compounds from US10174035B2, “6-morpholinyl-2-pyrazolyl-9H-purine derivatives and their use as PI3K inhibitors” (Daiichi Sankyo Company, Limited, priority 2015, dated 2019).

Structures are written as SMILES. pIC50: −log10 of the molar value.

The experiment has as its target recombinant PI3K δ enzyme (Homo sapiens (Human), UniProt O00329). Nature of the experiment: In vitro enzyme assay (Kinase-Glo luminescent kinase assay), PI3Kδ. The experiment is classed as biochemical. As for the experimental part: The Kinase-Glo luminescent kinase assay kit (from Promega) was used to measure kinase activity. In this assay, amount of ATP remaining in solution following a kinase reaction is measured. The effect of compounds on PI3Kδ inhibition was carried out by adding 2.29 μg/ml of recombinant PI3K δ enzyme (Proteros, Germany) to reaction mixture containing assay buffer (50 mM HEPES, pH 7.4, 50 mM NaCl, 0.05% CHAPS) supplemented with 10 mM MgCl2, 5 mM DTT, 60 μM Phosphatidyl inositol bisphosphate (PIP2) and 10 μM ATP in the absence or presence of different concentrations of the compounds in a final volume of 15 μl/well, in a 384 well plate. The reaction mixture was incubated for 2 hours at room temperature. At the end of incubation period the equal volume of Kinase-Glo plus (Promega, V3772), was added per well and the luminescence was measured after incubating for 10 minutes at room temperature in dark. Results were calculated by measuring the luminescence units of test samples to blanks containing no enzyme.
The compounds of the present invention were tested for their selectivity for PI3Kδ over PI3Kα, PI3Kβ and PI3Kγ following the above assay using specific recombinant enzymes (Proteros, Germany) for each kinase. Assay condition of kinase assay (PI3Kα, PI3Kβ, PI3Kγ and PI3Kδ) was as follows. Enzyme: 2.29 μg/mL; ATP: 10 μM; PIP2 substrate: 60 μM and Reaction Time: 2 hours.
Background: Kinase-Glo reads ATP consumption through a luciferase reaction.

Chain of recombinant PI3K δ enzyme (O00329 whole entry, species assumed): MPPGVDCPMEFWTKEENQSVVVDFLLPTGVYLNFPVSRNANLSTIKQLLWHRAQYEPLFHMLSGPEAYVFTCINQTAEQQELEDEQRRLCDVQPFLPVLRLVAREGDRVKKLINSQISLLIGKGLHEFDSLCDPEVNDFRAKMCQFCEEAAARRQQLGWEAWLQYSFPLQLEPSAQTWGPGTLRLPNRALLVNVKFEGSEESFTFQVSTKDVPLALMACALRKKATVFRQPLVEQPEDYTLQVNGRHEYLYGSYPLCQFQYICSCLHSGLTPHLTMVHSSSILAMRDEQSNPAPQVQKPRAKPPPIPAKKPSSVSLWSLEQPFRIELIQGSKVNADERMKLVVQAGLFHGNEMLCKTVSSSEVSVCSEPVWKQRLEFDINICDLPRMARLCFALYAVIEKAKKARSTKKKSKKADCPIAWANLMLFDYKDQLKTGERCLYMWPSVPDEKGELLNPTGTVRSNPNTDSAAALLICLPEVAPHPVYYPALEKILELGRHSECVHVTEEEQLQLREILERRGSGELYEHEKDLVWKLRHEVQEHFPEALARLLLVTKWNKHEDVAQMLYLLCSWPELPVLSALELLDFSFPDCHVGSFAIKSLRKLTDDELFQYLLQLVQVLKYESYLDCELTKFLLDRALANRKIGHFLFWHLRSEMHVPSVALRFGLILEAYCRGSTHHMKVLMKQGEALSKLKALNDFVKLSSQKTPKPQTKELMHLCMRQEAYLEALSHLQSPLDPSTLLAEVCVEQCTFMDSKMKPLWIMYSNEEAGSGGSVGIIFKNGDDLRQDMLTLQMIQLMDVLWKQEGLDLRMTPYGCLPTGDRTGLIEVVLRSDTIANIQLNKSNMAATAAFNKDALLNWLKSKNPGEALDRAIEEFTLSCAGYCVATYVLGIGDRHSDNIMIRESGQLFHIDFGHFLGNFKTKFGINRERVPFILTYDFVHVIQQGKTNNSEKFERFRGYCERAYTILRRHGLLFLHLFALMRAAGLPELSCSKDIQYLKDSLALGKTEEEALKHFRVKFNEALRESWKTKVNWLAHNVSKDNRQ
Chain of recombinant PI3K δ enzyme (P27986 whole entry partner, species assumed): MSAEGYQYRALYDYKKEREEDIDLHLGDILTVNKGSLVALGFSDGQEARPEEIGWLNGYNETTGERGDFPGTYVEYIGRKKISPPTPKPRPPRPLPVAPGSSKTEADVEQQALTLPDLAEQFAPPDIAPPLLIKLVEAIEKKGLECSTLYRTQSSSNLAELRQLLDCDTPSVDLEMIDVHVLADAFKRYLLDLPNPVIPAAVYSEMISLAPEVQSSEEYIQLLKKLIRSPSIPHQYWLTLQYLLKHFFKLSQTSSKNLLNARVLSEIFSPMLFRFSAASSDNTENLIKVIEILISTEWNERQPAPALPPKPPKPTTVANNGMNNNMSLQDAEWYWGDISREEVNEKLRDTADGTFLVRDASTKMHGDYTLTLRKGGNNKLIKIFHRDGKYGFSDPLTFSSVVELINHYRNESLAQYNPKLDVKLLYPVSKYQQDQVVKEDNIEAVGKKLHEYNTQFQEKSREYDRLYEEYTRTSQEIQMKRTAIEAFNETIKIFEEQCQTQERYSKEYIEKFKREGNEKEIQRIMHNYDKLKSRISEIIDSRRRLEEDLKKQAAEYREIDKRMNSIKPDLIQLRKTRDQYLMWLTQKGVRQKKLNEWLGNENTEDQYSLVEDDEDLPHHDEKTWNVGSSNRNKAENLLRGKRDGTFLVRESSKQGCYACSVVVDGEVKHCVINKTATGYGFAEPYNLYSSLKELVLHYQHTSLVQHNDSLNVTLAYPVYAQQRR

For orientation: pIC50 means the negative decadic logarithm of the IC50, by convention in mol/L. As to `Cn1cc(-c2nc(N3CCOCC3)c3nc(C(=O)N4CCC(N5CCOCC5=O)CC4)[nH]c3n2)cn1` [compound 7, 4-(1-{[2-(1-Methyl-1H-pyrazol-4-yl)-6-(morpholin-4-yl)-9H-purin-8-yl]carbonyl}piperidin-4-yl)morpholin-3-one], the pIC50 is 7.38.

`Cc1c(-c2cnn(C)c2)nc2[nH]c(C(=O)N3CCC(N4CCOCC4)CC3)nc2c1N1CCOCC1` [compound 90, [6-Methyl-5-(1-methyl-1H-pyrazol-4-yl)-7-(morpholin-4-yl)-3H-imidazo[4,5-b]pyridin-2-yl][4-(morpholin-4-yl)piperidin-1-yl]methanone]: the pIC50 was 6.73.

On to `O=C(c1nc2c(N3CCOCC3)c(F)c(-c3cn[nH]c3)nc2[nH]1)N1CCC(N2CCOCC2)CC1` [compound 125, [6-Fluoro-7-(morpholin-4-yl)-5-(1H-pyrazol-4-yl)-3H-imidazo[4,5-b]pyridin-2-yl][4-(morpholin-4-yl)piperidin-1-yl]methanone], for which the pIC50 is 7.37.

Regarding `Cn1cc(-c2nc(N3CCOCC3)c3nc(C(=O)NCC4CCCCC4)[nH]c3n2)cn1` [compound 36, N-(Cyclohexylmethyl)-2-(1-methyl-1H-pyrazol-4-yl)-6-(morpholin-4-yl)-9H-purine-8-carboxamide], the pIC50 was 7.82.

For the compound `Cn1cc(-c2nc3c(nc(C(=O)N4CCC5(CC4)COC5)n3C)c(N3CCOCC3)c2F)cn1` [compound 108, [6-Fluoro-3-methyl-5-(1-methyl-1-pyrazol-4-yl)-7-(morpholin-4-yl)-3H-imidazo[4,5-b]pyridin-2-yl](2-oxa-7-azaspiro[3.5]non-7-yl)methanone], the pIC50 is 6.88.

Consider `Cn1cc(-c2nc(N3CCOCC3)c3nc(C(=O)N4CCC(CC(=O)O)CC4)[nH]c3n2)cn1` [compound 50, (1-{[2-(1-Methyl-1H-pyrazol-4-yl)-6-(morpholin-4-yl)-9H-purin-8-yl]carbonyl}piperidin-4-yl)acetic acid], for which the negative-log IC50 (pIC50) was 6.69.

As to `C[C@@H]1CN(C2CCN(C(=O)c3nc4c(N5CCOCC5)cc(-c5cn[nH]c5)nc4[nH]3)CC2)C[C@H](C)O1` [compound 118, {4-[cis-2,6-Dimethylmorpholin-4-yl]piperidin-1-yl}[7-(morpholin-4-yl)-5-(1H-pyrazol-4-yl)-3H-imidazo[4,5-b]pyridin-2-yl]methanone], the pIC50 was 7.30.

As for `Cn1cc(-c2nc(N3CCOCC3)c3nc(C(=O)N4CCN(c5ccccc5)CC4)[nH]c3n2)cn1` [compound 32, [2-(1-Methyl-1H-pyrazol-4-yl)-6-(morpholin-4-yl)-9H-purin-8-yl](4-phenylpiperazin-1-yl)methanone], the pIC50 is 7.25.

As to `Cc1c(-c2nc(N3CCOCC3)c3nc(C(=O)N4CCC(N5CCOCC5)CC4)[nH]c3n2)cnn1C` [compound 40, [2-(1,5-Dimethyl-1H-pyrazol-4-yl)-6-(morpholin-4-yl)-9H-purin-8-yl][4-(morpholin-4-yl)piperidin-1-yl]methanone], the pIC50 is 7.55.

Turning to `Cn1cc(-c2nc(N3CCOCC3)c3nc(C(=O)N4CCN(S(C)(=O)=O)CC4)[nH]c3n2)cn1` [compound 34, [2-(1-Methyl-1H-pyrazol-4-yl)-6-(morpholin-4-yl)-9H-purin-8-yl][4-(methylsulfonyl)piperazin-1-yl]methanone], the negative logarithm of the IC50 (pIC50) was 6.52.

Consider `Cc1nn(C)cc1-c1nc(N2CCOCC2)c2nc(C(=O)N3CCC(C(C)(C)O)CC3)[nH]c2n1` [compound 12, [2-(1,3-Dimethyl-1H-pyrazol-4-yl)-6-(morpholin-4-yl)-9H-purin-8-yl][4-(2-hydroxypropan-2-yl)piperidin-1-yl]methanone], for which the pIC50 is 7.47.

With `CN(C)C(=O)c1nc2c(N3CCOCC3)nc(-c3cnn(C)c3)nc2[nH]1` [compound 48, N,N-Dimethyl-2-(1-methyl-1H-pyrazol-4-yl)-6-(morpholin-4-yl)-9H-purine-8-carboxamide], the pIC50 is 7.12.

With `Cn1cc(-c2nc(N3CCOCC3)c3nc(C(=O)N4CCN(C5CCOCC5)CC4)[nH]c3n2)cn1` [compound 11, [2-(1-Methyl-1H-pyrazol-4-yl)-6-(morpholin-4-yl)-9H-purin-8-yl][4-(tetrahydro-2H-pyran-4-yl)piperazin-1-yl]methanone], the pIC50 was 7.59.

For the compound `CN1CCN(C(=O)c2nc3c(N4CCOCC4)nc(-c4cnn(C)c4)nc3[nH]2)CC1` [compound 46, (4-Methylpiperazin-1-yl)[2-(1-methyl-1H-pyrazol-4-yl)-6-(morpholin-4-yl)-9H-purin-8-yl]methanone], the negative-log IC50 (pIC50) was 7.16.

`Cc1n[nH]cc1-c1nc(N2CCOCC2)c2nc(C(=O)N3CCC(N4CCOCC4)CC3)[nH]c2n1` [compound 66, [2-(3-Methyl-1H-pyrazol-4-yl)-6-(morpholin-4-yl)-9H-purin-8-yl][4-(morpholin-4-yl)piperidin-1-yl]methanone]: the negative logarithm of the IC50 (pIC50) is 7.68.

Turning to `Cn1cc(-c2cc(N3CCOCC3)c3nc(C(=O)N4CC(N5CCNC(=O)C5)C4)[nH]c3n2)cn1` [Compound No. 128, 4-(1-{[5-(1-Methyl-1H-pyrazol-4-yl)-7-(morpholin-4-yl)-3H-imidazo[4,5-b]pyridin-2-yl]carbonyl}azetidin-3-yl)piperazin-2-one], the pIC50 was 7.72.

As for `CN(C(=O)c1nc2c(N3CCOCC3)cc(-c3cnn(C)c3)nc2[nH]1)C1CCN(C2CCOCC2)CC1` [Compound No. 121, N-Methyl-5-(1-methyl-1H-pyrazol-4-yl)-7-(morpholin-4-yl)-N-[1-(tetrahydro-2H-pyran-4-yl)piperidin-4-yl]-3H-imidazo[4,5-b]pyridine-2-carboxamide], the pIC50 is 7.28.

In the case of `Cn1cc(-c2nc3[nH]c(C(=O)N4CC(N5CCOCC5)C4)nc3c(N3CCOCC3)c2F)cn1` [compound 126, [6-Fluoro-5-(1-methyl-1H-pyrazol-4-yl)-7-(morpholin-4-yl)-3H-imidazo[4,5-b]pyridin-2-yl][3-(morpholin-4-yl)azetidin-1-yl]methanone], the pIC50 is 7.60.

As for `CN(C)C1CCN(C(=O)c2nc3c(N4CCOCC4)cc(-c4cnn(C)c4)nc3n2C)CC1` [compound 100, [4-(Dimethylamino)piperidin-1-yl][3-methyl-5-(1-methyl-1H-pyrazol-4-yl)-7-(morpholin-4-yl)-3H-imidazo[4,5-b]pyridin-2-yl]methanone], the negative-log IC50 (pIC50) is 7.19.

With `CN(C)[C@H]1CCN(C(=O)c2nc3c(N4CCOCC4)nc(-c4cnn(C)c4)nc3[nH]2)C1` [compound 44, [(3S)-3-(Dimethylamino)pyrrolidin-1-yl][2-(1-methyl-1H-pyrazol-4-yl)-6-(morpholin-4-yl)-9H-purin-8-yl]methanone], the negative-log IC50 (pIC50) was 7.12.

For the compound `CC(C)n1cc(-c2nc(N3CCOCC3)c3nc(C(=O)N4CCC(N5CCOCC5)CC4)[nH]c3n2)cn1` [compound 18, [4-(Morpholin-4-yl)piperidin-1-yl]{6-(morpholin-4-yl)-2-[1-(propan-2-yl)-1H-pyrazol-4-yl]-9H-purin-8-yl}methanone], the pIC50 is 6.64.

Consider `Cn1cc(-c2nc(N3CCOCC3)c3nc(C(=O)N4CCN(c5ncccn5)CC4)[nH]c3n2)cn1` [compound 27, [2-(1-Methyl-1H-pyrazol-4-yl)-6-(morpholin-4-yl)-9H-purin-8-yl][4-(pyrimidin-2-yl)piperazin-1-yl]methanone], for which the negative-log IC50 (pIC50) was 6.89.
